The values that follow come from publication PMC13286569 (eLife, 2026).

The assay deals with T1, DcDop2 (Diaphorina citri, UniProt A0A3Q0INR4).
T1 construct: gene LOC103507230; full ORF (2049 nt, 682 residues) in pcDNA3.1, transiently expressed in CHO-WTA11 cells (Galpha16 and aequorin)
T1 sequence (A0A3Q0INR4 1-682): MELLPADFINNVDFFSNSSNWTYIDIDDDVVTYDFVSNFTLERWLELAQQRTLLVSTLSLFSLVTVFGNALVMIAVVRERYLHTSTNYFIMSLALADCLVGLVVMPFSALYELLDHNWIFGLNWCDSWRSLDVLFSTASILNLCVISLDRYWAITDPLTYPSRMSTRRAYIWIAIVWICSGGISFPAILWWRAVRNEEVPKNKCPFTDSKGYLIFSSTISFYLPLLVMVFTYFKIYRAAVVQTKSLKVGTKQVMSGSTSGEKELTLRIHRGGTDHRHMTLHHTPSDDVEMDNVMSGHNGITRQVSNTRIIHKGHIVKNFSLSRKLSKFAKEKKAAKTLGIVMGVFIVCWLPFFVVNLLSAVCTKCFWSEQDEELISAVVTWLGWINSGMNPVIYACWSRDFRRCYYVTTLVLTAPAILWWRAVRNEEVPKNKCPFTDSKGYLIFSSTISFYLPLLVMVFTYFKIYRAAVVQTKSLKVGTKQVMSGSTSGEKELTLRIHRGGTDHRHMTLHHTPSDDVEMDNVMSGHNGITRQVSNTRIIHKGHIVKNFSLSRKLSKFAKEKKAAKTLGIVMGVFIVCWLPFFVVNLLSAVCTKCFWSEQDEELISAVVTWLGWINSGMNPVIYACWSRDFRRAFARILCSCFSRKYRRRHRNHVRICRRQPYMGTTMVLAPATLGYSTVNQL
As to the kind of experiment: aequorin calcium mobilization luminescence in transfected CHO-WTA11 cells. It counts as cell-based. A general note: A change in cytosolic calcium serves as a functional read-out for many receptors and channels.

SMILES strings stand for the structures.

In the case of `NCCc1ccc(O)c(O)c1` [DA, dopamine], the 50% effective concentration (EC50) was determined as 4.05 nM.

For orientation: EC50 means the concentration that produces a half-maximal response.
